Reference: US7402417B2, “P450 oxygenases and methods of use” (Washington State University Research Foundation, priority 2003, dated 2008)
Read-outs that look alike come from different tables or passages of the source.

How the values were obtained:
5α-hydroxylase = conditions: 100 μM inhibitor; cited from earlier work
[1] = target: T1, recombinant taxoid 5α-hydroxylase (clone S1) (Taxus cuspidata, UniProt Q6WG30); assay: Substrate binding spectra with Sf9 microsomes enriched in recombinant 5α-hydroxylase; conditions: no NADPH
T1 construct: the S1 ORF was amplified using Pfu DNA polymerase and gene-specific primers containing a BamHI site immediately upstream of the start codon; made in house; host or cells: Spodoptera frugiperda Sf9 cells (baculovirus, pFastBac1); microsomal membranes
Protocol: Microsomes from S. frugiperda cells enriched with 200 pmol recombinant taxoid 5α-hydroxylase (clone S1) were employed. Taxa-4(20),11(12)-diene was assayed over a concentration range from 0.1 to 10 μM, and a binding constant (Ks) of 4±1 μM was determined (upper graph). Taxa-4(5),11(12)-diene was assayed over a concentration range of 0.1 to 20 μM and a binding constant (Ks) of 6.5±1.5 μM was determined (lower graph).
Binding spectra for both taxadiene isomers (in the absence of NADPH) were then recorded using the Sf9 cell microsomes enriched in the recombinant 5α-hydroxylase. Substrate binding spectra were obtained as described by Schenkin and Jausson, Methods Mol. Biol. (Cytochrome P450 Protocols), 107:25-33, 1998) using a Perkin-Elmer Lambda 18 spectrophotometer (Haudenschild et al., Arch. Biochem. Biophys., 379:127-136, 2000). Substrate binding spectra were recorded with up to 200 pmol of recombinant microsomal cytochrome P450 enzyme (as determined by CO-difference spectral analysis) per cuvette in 100 mM sodium phosphate buffer at pH 7.5. In preparation for binding studies, the taxadiene isomers were each dissolved in DMSO and 1 μl additions to the sample were made to a final concentration of 1.5% (v/v). For data analysis, Spectrum for Windows (Perkin-Elmer Corp., Wellesey, Mass.) and Sigmaplot 7.0 (SPSS Inc., Chicago, Ill.) were employed and experiments were run in triplicate.

[2] = target: T1, recombinant taxoid 5α-hydroxylase (clone S1); assay: Kinetic evaluation with Sf9 microsomes enriched in recombinant 5α-hydroxylase (radio-HPLC, Michaelis-Menten); assay type: biochemical; conditions: recombinant enzyme, 200 μM NADPH plus regenerating system
Protocol: Kinetic constants for both isomers were next evaluated (at a saturating 200 μM concentration of NADPH plus regenerating system; Shimada and Yamazai, Meth. Mol. Biol., 107:85-93, 1998). The isolated microsomes were resuspended in 50 mM Hepes, pH 7.5, containing 1 mM DTT and 5% (v/v) glycerol, and the 1 ml reactions (˜600 μg protein, 50 μM substrate dissolved in DMSO, and the requisite cofactors (e.g., NADPH plus regenerating system) were run as described previously, with the identical protocols for product analysis (Jennewein et al., Proc. Natl. Acad. Sci. USA, 98:13595-13600, 2001). DMSO was without influence on the reaction. For kinetic evaluation, following the establishment of linear reaction conditions in protein concentration and time, the response to substrate concentration was plotted by the Michaelis-Menten method (Sigmaplot 7.0) using the calibrated radio-HPLC protocol for product determination Data from three independent experiments were pooled and the line of best fit taken (R^2>0.99).

[3] = system: microsomal 5α-hydroxylase activity; assay: Kinetic evaluation with Taxus suspension cell microsomes (radio-HPLC, total product); assay type: biochemical, Taxus media hicksii; conditions: T. media suspension cell microsomes, [20-3H] substrate
Protocol: Preparation of Taxus suspension cell microsomes and assays for microsomal 5α-hydroxylase activity were carried out as previously described (Hefner et al., Chem. Biol., 3:479489, 1996; Lovy Wheeler et al., Arch. Biochem. Biophys., 390:265-278, 2001) with the following modifications: Unelicited Taxus media hicksii cells were harvested 14 days after transfer, separated from the media, frozen in liquid N2 and ground to a fine powder with a mortar and pestle, with extraction and microsome preparation as described by Lovy Wheeler et al. (Arch. Biochem. Biophys., 390:265-278, 2001). The previously described radio-HPLC-based assay (Lovy Wheeler et al., Arch. Biochem. Biophys., 390:265-278, 2001) was employed to separate the substrate from taxadien-5α-ol and polyols derived therefrom which were summed as “total product” for the purpose of rate determination.
Following the confirmation of linear reaction conditions in protein concentration and time, kinetic constants were determined for both [20-3H]taxa-4(5),11(12)-diene and [20-3H]taxa-4(20),11(12)-diene with the optimized assay (Hefner et al., Chem. Biol., 3:479-489, 1996). The radio-HPLC-based assay previously described by Lovy Wheeler et al. (Arch. Biochem. Biophys., 390:265-278, 2001) was employed to permit summing of taxadien-polyols derived subsequently from the initially formed taxadienol product generated by this microsomal system that contains all of the downstream cytochrome P450 taxoid oxygenases of the pathway (Lovy Wheeler et al., Arch. Biochem. Biophys., 390:265-278, 2001).
Thus, one or more constituents of the crude Taxus microsomal protein preparation catalyze the reaction of taxa-4(5),11(12)-diene and taxa-4(20),11(12)-diene to the corresponding taxadienols.

[4] = target: T2, clone S1 taxoid 5α-hydroxylase in Saccharomyces cerevisiae WAT11 (Taxus cuspidata, UniProt Q6WG30); assay: In vivo feeding of labeled substrate to yeast expressing clone S1, radio-HPLC and GC-MS of products; assay type: cell-based; conditions: 30 μM substrate
T2 construct: expressed in transfected cells; host or cells: Saccharomyces cerevisiae strain WAT11
Text: This in vivo feeding protocol eliminated the uncertainties associated with microsome isolation and in vitro assay, including the instability of P450 oxygenases in yeast membranes (Schoendorf et al., Proc. Nail. Acad. Sci. USA, 98:1501-1506, 2001).
Transformed and induced yeast cells were harvested by centrifugation as described in Example 2. As a negative control for the feeding experiments, the yeast host was transformed with the pYES2.1/V5-HIS-TOPO™ vector containing a β-glucuronidase insert instead of the cytochrome P450 S1 clone. The cells were resuspended in 3 ml of fresh YPLA medium to which 30 μM of the labeled test substrate was added. Test substrates included:
The cell and test substrate suspension was incubated overnight at 30° C. with mixing (250 rpm). The incubation mixture was then treated for 15 minutes in a sonication bath and extracted twice with 3 ml of hexane:ethyl acetate (4:1 v/v). The organic extract was then dried under N2, the residue dissolved in 100 μl of acetonitrile, and an aliquot was separated by reversed-phase radio-HPLC (250 mm×4.6 mm column of Alltech (Deerfield, Ill.) Econosil C18 (5 μm); flow rate of 1 ml/min; with radio-detection of the effluent (Flow-One-Beta Series A-1000, Radiomatic Corp., Meriden, Conn.)). The following gradient was employed: 0-5 minutes at 100% Solvent A (97.99% H2O with 2% CH3CN and 0.01% H3PO4 (v/v)), 5-15 minutes at 0-50% Solvent B (99.99% CH3CN with 0.01% H3PO4 (v/v)), 15-55 minutes at 50-100% Solvent B, 55-65 minutes at 100% Solvent B, 65-70 minutes at 0-100% Solvent A, 70-75 minutes at 100% Solvent A. The HPLC eluant was collected in 1 minute fractions and the appropriate fractions containing the radiolabeled product were combined, dried under a stream of N2, and dissolved in the minimum volume of benzene for GC-MS analysis.
GC-MS analyses were performed on a Hewlett-Packard 6890 GC-MSD system using a ZB-5 capillary column (Phenomenex (Torrance, Calif.); 30 m length; 0.25 mm inner diameter; coated with a 0.25 μm film of phenyl (5%) polysiloxane). Cool on-column injection was used, with He flow rate of 0.7 ml/min and a temperature program from 40° C. to 320° C. at 20° C./min. Spectra were recorded at 70 eV.

[5] = system: microsomal taxa-4(5),11(12)-diene isomerase activity; assay: Assay for microsomal taxadiene isomerase activity and pH-dependent isomerization; assay type: biochemical; conditions: Taxus or Spodoptera microsomes, no NADPH or no O2, or CO, miconazole, clotrimazole, boiled controls
Protocol: The assay for microsomal taxa-4(5),11(12)-diene isomerase activity (and the reverse isomerization) was carried out under standard cytochrome P450 oxygenase conditions but in the absence of NADPH or O2, or in the presence of inhibitory concentrations of CO, miconazole or clotrimazole (under conditions described previously for which the rate of 5α-hydroxylation is negligible (Hefner et al., Chem. Biol., 3:479489, 1996)). A number of additional, potential cofactors were also tested, including FAD, FADH2, FMN, FMNH2, NAD+, NADH and NADP+ (all at 2.5 mM), as well as MgCl2 (at 5.0 mM). The possibility of pH-dependent isomerization was tested by incubating each isomer (100 μM) in phosphate buffer (pH 4 to 10) for 12 hours at 31° C., with separation of isomers as described previously (Williams et al., Arch. Biochem. Biophys., 379:137-146, 2000).

taxoid 5α-hydroxylase = taxoid 5α-hydroxylase (Taxus cuspidata, UniProt Q6WG30); assay: Kinetic evaluation of taxadiene isomers, average of recombinant and T. media microsomes (FIG. 4); assay type: biochemical; conditions: average of recombinant (Sf9) and T. media microsomes; substrate 1 to 500 μM
Protocol: Taxa-4(20),11(12)-diene (◯) and taxa-4(5),11(12)-diene (●) were evaluated with microsomes from S. formgiperda cells enriched with 50 pmol recombinant taxoid 5α-hydroxylase (A), and with microsomes from T. media suspension cells containing about 50 pmol of total native cytochrome P450 (B). Substrate Concentration range was varied from 1 to 500 μM in all cases.

[6] = system: native microsomal 5α-hydroxylase; conditions: native microsome preparations from yew stem tissue, determined previously; cited from earlier work
taxoid 13α-hydroxylase = target: T3, taxoid 13α-hydroxylase (Taxus cuspidata, UniProt Q8W4T9); assay: Feeding to yeast that functionally express taxoid 13α-hydroxylase; assay type: cell-based; conditions: product of clone S1 enzyme fed to 13α-hydroxylase yeast
T3 construct: expressed in transfected cells
Text: The taxa-4(20),11(12)-dien-5α-ol radiolabeled product of the clone S1 enzyme was isolated by HPLC, and the purified material was fed to yeast that functionally express the previously characterized taxoid 13α-hydroxylase (Jennewein et al., Proc. Natl. Acad. Sci. USA, 98:13595-13600, 2001). As discussed above, 13α-hydroxylation of a paclitaxel intermediate is believed to follow 5α-hydroxylation in the paclitaxel biosynthetic pathway (Floss and Mocek, Taxol: Science and Applications, CRC Press, Boca Raton, 191-208, 1995; and Croteau et al., Curr. Top. Plant Physiol. 15:94-104, 1996). Thus, as expected, taxa-4(20),11(12)-dien-5α-ol was quantitatively converted to taxa-4(20),11(12)-dien-5α,13α-diol by the 13α-hydroxylase.

[7] = FIG. 3, microsomes with 200 pmol recombinant enzyme, read-out: binding constant (Ks)
[8] = over a 100-fold range of substrate concentrations, pH 7.5, read-out: substrate binding constant (Ks), variation
[9] = overnight at 30° C., radio-HPLC

T1 sequence (Q6WG30 with tags, fused parts or gaps): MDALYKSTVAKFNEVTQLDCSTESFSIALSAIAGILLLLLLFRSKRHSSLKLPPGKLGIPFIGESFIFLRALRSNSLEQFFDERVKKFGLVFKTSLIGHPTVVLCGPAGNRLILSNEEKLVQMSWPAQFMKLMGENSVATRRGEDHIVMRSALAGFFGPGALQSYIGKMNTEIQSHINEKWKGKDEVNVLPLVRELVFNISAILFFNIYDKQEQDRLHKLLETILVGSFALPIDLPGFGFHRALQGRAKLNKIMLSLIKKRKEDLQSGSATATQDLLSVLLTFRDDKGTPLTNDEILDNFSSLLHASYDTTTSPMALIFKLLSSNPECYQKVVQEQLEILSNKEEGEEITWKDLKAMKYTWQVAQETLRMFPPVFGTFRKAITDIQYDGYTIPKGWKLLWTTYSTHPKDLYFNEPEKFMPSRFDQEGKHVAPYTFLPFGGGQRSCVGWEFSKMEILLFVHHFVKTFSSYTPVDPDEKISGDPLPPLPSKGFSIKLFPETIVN
T2 sequence (Q6WG30 with tags, fused parts or gaps limits assumed): as the sequence (Q6WG30 with tags, fused parts or gaps) above
Chain of taxoid 5α-hydroxylase (Q6WG30 whole entry): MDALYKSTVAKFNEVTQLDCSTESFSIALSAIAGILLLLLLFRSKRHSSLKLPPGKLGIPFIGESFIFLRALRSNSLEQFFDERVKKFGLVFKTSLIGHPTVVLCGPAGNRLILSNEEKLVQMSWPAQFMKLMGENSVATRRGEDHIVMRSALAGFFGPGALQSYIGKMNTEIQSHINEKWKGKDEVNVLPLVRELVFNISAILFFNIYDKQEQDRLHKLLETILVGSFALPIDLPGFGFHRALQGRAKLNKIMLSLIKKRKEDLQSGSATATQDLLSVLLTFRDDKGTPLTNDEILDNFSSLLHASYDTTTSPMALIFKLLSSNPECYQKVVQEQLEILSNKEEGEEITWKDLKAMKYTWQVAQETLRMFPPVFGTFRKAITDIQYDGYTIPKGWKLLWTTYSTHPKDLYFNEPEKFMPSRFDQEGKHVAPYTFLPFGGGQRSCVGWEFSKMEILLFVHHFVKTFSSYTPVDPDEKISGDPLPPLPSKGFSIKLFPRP
T3 sequence (Q8W4T9 whole entry): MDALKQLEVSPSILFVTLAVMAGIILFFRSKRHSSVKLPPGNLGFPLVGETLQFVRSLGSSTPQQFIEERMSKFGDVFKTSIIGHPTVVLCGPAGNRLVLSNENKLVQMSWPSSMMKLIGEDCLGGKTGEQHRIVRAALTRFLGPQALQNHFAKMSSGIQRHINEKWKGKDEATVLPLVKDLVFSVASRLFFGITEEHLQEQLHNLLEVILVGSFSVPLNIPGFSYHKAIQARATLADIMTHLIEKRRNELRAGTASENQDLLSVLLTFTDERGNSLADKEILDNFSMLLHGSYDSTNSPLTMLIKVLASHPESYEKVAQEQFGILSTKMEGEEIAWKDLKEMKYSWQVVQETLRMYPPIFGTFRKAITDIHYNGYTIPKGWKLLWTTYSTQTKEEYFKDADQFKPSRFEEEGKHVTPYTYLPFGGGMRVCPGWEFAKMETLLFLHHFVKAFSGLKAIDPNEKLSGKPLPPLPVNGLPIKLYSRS

Clc1ccccc1C(c1ccccc1)(c1ccccc1)n1ccnc1 [clotrimazole]
hydroxylation activity in the presence of the inhibitor (5α-hydroxylase): negligible

Clc1ccc(COC(Cn2ccnc2)c2ccc(Cl)cc2Cl)c(Cl)c1 (stereo not shown) [miconazole]
hydroxylation activity in the presence of the inhibitor (5α-hydroxylase): negligible

CC1=CCC[C@@]2(C)CCC3=C(C)CC[C@@H](C[C@H]12)C3(C)C [taxa-4(5),11(12)-diene]
Kd [1, 7]: 6.5 ± 1.5 µM | Kd [1, 8]: 5 to 8 µM | Vrel [2]: 100 | Km [3]: 48 µM | Vrel [3]: 100 | conversion to more polar products [4, 9]: almost quantitatively | share of minor product taxadien-diol [4, 9]: < 50% | share of principal product taxa-4(20),11(12)-dien-5α-ol [4, 9]: > 92% | isomerization to the other taxadiene positional isomer [5]: No isomerization | isomerization to the other taxadiene positional isomer ([5]; listed as 3): not observed | Vrel (average) (taxoid 5α-hydroxylase): 100 | Km [6]: ~6 µM

C=C1[C@H]2C[C@@H]3CCC(C)=C(CC[C@]2(C)CC[C@@H]1O)C3(C)C [taxa-4(20),11(12)-dien-5α-ol]
conversion to taxa-4(20),11(12)-dien-5α,13α-diol (taxoid 13α-hydroxylase): quantitatively

C=C1CCC[C@@]2(C)CCC3=C(C)CC[C@@H](C[C@H]12)C3(C)C [taxa-4(20),11(12)-diene]
Kd [1, 7]: 4 ± 1 µM | Kd [1, 8]: 3 to 5 µM | Vrel [2]: 120 | Km [3]: 27 µM | Vrel [3]: 150 | share of minor product taxadien-diol [4, 9]: ~8% | share of principal product taxa-4(20),11(12)-dien-5α-ol [4, 9]: ~90% | share of other minor metabolites in product mix ([4]; also formed in negative control): ~2% | isomerization to the other taxadiene positional isomer [5]: No isomerization | Vrel (average) (taxoid 5α-hydroxylase): 135
